Test results from patent publication US10925876B2, “Methods for using triazolo-pyrazinyl soluble guanylate cyclase activators in fibrotic disorders” (Merck Sharp & Dohme Corp., priority 2016, dated 2021).

What follows are compounds tested against T1, sGC α1/β1 heterodimer (Homo sapiens, UniProt Q02108+Q02153) (assay: Cell-Based sGC Functional Assay (CASA Assay), cGMP generation in CHO-K1/sGC cells). Conditions: maximum cGMP production of Compound A set to 100% activation, read-out: % Act. (percent activation relative to Compound A).
T1 construct: expressed in transfected cells
T1 sequence (Q02108 1-690): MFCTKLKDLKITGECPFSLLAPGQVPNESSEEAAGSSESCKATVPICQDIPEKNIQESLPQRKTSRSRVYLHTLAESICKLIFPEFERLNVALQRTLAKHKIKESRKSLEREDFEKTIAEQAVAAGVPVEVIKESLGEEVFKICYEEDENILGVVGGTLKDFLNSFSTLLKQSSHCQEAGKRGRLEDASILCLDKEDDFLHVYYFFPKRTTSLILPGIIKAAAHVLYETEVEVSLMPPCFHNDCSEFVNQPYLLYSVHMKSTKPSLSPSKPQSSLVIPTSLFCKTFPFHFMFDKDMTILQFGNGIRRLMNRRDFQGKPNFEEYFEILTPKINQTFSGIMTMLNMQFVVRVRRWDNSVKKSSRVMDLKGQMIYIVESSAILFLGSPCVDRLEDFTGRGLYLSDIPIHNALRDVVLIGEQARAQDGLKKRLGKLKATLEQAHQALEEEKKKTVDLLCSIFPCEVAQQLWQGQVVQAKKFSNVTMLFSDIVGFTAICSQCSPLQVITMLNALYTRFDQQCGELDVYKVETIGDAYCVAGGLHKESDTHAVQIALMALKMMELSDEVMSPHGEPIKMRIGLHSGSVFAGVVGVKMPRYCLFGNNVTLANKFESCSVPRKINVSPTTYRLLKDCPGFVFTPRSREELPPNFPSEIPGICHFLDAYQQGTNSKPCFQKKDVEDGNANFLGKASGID
T1 sequence (Q02153 1-619): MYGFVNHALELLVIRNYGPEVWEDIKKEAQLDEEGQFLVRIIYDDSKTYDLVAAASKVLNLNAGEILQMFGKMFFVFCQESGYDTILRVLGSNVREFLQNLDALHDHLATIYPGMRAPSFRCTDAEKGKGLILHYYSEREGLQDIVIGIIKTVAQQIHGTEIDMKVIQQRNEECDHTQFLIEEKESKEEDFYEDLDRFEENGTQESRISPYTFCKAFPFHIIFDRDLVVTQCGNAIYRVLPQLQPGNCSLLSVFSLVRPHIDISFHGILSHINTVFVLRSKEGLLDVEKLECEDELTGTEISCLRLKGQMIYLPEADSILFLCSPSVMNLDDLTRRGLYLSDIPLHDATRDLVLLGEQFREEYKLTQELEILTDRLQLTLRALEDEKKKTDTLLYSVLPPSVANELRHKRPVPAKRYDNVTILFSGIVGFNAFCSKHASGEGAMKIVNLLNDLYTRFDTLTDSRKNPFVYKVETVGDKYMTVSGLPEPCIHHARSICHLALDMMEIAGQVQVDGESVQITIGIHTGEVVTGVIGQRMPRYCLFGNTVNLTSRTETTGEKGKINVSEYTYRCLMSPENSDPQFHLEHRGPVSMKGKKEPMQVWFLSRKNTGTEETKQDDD
In short: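 Intracellular cGMP quantified by HTRF competition after 1 h, 37 °C compound exposure, with or without 1 μM DETA-NO, in stable CHO-K1/sGC α1/β1 cells (4×10^5/mL; buffer with 0.5 mM IBMX, 5 mM MgCl2, 10 mM HEPES, 0.05% BSA; 2.5% DMSO). Activation normalized to reference Compound A maximum; 4P fit.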
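Note: reference Compound A is a published heme-dependent sGC activator.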

Emax [%] | SMILES
78 | O=C1Nc2nc(-c3cn4ncnc4c(CCC(F)(F)C(F)(F)F)n3)nc(O)c2C1(c1ccc(F)c(F)c1)C1CC1 (stereo not drawn) [Example 123A, 5-cyclopropyl-5-(3,4-difluorophenyl)-4-hydroxy-2-(8-(3,3,4,4,4-pentafluorobutyl)-[1,2,4]triazolo[1,5-a]pyrazin-6-yl)-5H-pyrrolo[2,3-b]pyrimidin-6(7H)-one]
88 | O=C1Nc2nc(-c3cn4ncnc4c(CCC(F)(F)C(F)(F)F)n3)nc(O)c2C1(c1cncc(F)c1)C1CC1 (stereo not drawn) [Example 124B, 5-cyclopropyl-5-(5-fluoropyridin-3-yl)-4-hydroxy-2-(8-(3,3,4,4,4-pentafluorobutyl)-[1,2,4]triazolo[1,5-a]pyrazin-6-yl)-5H-pyrrolo[2,3-d]pyrimidin-6(7H)-one]
102 | CC1(c2ccc(Cl)cc2)C(=O)Nc2nc(-c3cn4ncnc4c(CCC(F)(F)C(F)(F)F)n3)nc(O)c21 (stereo not drawn) [Example 126A, 5-(4-chlorophenyl)-4-hydroxy-5-methyl-2-(8-(3,3,4,4,4-pentafluorobutyl)-[1,2,4]triazolo[1,5-a]pyrazin-6-yl)-5H-pyrrolo[2,3-d]pyrimidin-6(7H)-one]
66 | CC1(c2cccc(F)c2)C(=O)Nc2nc(-c3cn4ncnc4c(CCC(F)(F)C(F)(F)F)n3)nc(O)c21 (stereo not drawn) [Example 129B, 5-(3-fluorophenyl)-4-hydroxy-5-methyl-2-(8-(3,3,4,4,4-pentafluorobutyl)-[1,2,4]triazolo[1,5-a]pyrazin-6-yl)-5,7-dihydro-6H-pyrrolo[2,3-d]pyrimidin-6-one]
102 | CC1(c2ccc(C(F)(F)F)cc2)C(=O)Nc2nc(-c3cn4ncnc4c(CCCC(F)(F)F)n3)nc(O)c21 (stereo not drawn) [Example 137B, 4-hydroxy-5-methyl-2-(8-(4,4,4-trifluorobutyl)-[1,2,4]triazolo[1,5-a]pyrazin-6-yl)-5-(4-(trifluoromethyl)phenyl)-5H-pyrrolo[2,3-d]pyrimidin-6(7H)-one]
169 | O=C1Nc2nc(-c3cn4ncnc4c(CCCC(F)(F)F)n3)nc(O)c2C1(c1ccc(F)cc1)C1CC1 (stereo not drawn) [Example 139B, 5-cyclopropyl-5-(4-fluorophenyl)-4-hydroxy-2-(8-(4,4,4-trifluorobutyl)-[1,2,4]triazolo[1,5-a]pyrazin-6-yl)-5H-pyrrolo[2,3-d]pyrimidin-6(7H)-one]
87 | O=C1Nc2nc(-c3cn4ncnc4c(CCCC(F)(F)F)n3)nc(O)c2C1(c1ccc(C(F)(F)F)cc1)C1CC1 (stereo not drawn) [Example 144A, 5-cyclopropyl-4-hydroxy-2-(8-(4,4,4-trifluorobutyl)-[1,2,4]triazolo[1,5-a]pyrazin-6-yl)-5-(4-(trifluoromethyl)phenyl)-5H-pyrrolo[2,3-d]pyrimidin-6(7H)-one]
64 | CC1(c2ccccn2)C(=O)Nc2nc(-c3cn4ncnc4c(CCCC(F)(F)F)n3)nc(O)c21 (stereo not drawn) [Example 145B, 4-hydroxy-5-methyl-5-(pyridin-2-yl)-2-(8-(4,4,4-trifluorobutyl)-[1,2,4]triazolo[1,5-a]pyrazin-6-yl)-5H-pyrrolo[2,3-d]pyrimidin-6(7H)-one]
94 | CC1(c2ccc(F)c(Cl)c2)C(=O)Nc2nc(-c3cn4ncnc4c(CCCC(F)(F)F)n3)nc(O)c21 (stereo not drawn) [Example 147B, 5-(3-chloro-4-fluorophenyl)-4-hydroxy-5-methyl-2-(8-(4,4,4-trifluorobutyl)-[1,2,4]triazolo[1,5-a]pyrazin-6-yl)-5,7-dihydro-6H-pyrrolo[2,3-d]pyrimidin-6-one]
63 | Cc1ccc(C2(C)C(=O)Nc3nc(-c4cn5ncnc5c(CCCC(F)(F)F)n4)nc(O)c32)nc1 (stereo not drawn) [Example 149B, 4-hydroxy-5-methyl-5-(5-methylpyridin-2-yl)-2-(8-(4,4,4-trifluorobutyl)-[1,2,4]triazolo[1,5-a]pyrazin-6-yl)-5H-pyrrolo[2,3-d]pyrimidin-6(7H)-one]
74 | O=C1Nc2nc(-c3cn4ncnc4c(CCCC(F)(F)F)n3)nc(O)c2C1(c1ccc(F)cn1)C1CC1 (stereo not drawn) [Example 150A, 5-cyclopropyl-5-(5-fluoropyridin-2-yl)-4-hydroxy-2-(8-(4,4,4-trifluorobutyl)-[1,2,4]triazolo[1,5-a]pyrazin-6-yl)-5,7-dihydro-6H-pyrrolo[2,3-d]pyrimidin-6-one]

The next lines start with the compound.

SMILES | Emax [%]
N#Cc1ccc(C2(C3CC3)C(=O)Nc3nc(-c4cn5ncnc5c(CCC(F)(F)C(F)(F)F)n4)nc(N)c32)nc1 (stereo not drawn) [Example 118A, 6-(4-Amino-5-cyclopropyl-6-oxo-2-(8-(3,3,4,4,4-pentafluorobutyl)-[1,2,4]triazolo[1,5-a]pyrazin-6-yl)-6,7-dihydro-5H-pyrrolo[2,3-d]pyrimidin-5-yl)nicotinonitrile] | 72
CC1(c2ccccn2)C(=O)Nc2nc(-c3cn4ncnc4c(CCC(F)(F)C(F)(F)F)n3)nc(O)c21 (stereo not drawn) [Example 127B, 4-hydroxy-5-methyl-2-(8-(3,3,4,4,4-pentafluorobutyl)-[1,2,4]triazolo[1,5-a]pyrazin-6-yl)-5-(pyridin-2-yl)-5H-pyrrolo[2,3-d]pyrimidin-6(7H)-one] | 129
CC1(c2ccccc2)C(=O)Nc2nc(-c3cn4ncnc4c(CCC(F)(F)C(F)(F)F)n3)nc(O)c21 (stereo not drawn) [Example 128B, 4-hydroxy-5-methyl-2-(8-(3,3,4,4,4-pentafluorobutyl)-[1,2,4]triazolo[1,5-a]pyrazin-6-yl)-5-phenyl-5H-pyrrolo[2,3-d]pyrimidin-6(7H)-one] | 106
Cc1ccc(C2(C)C(=O)Nc3nc(-c4cn5ncnc5c(CCC(F)(F)C(F)(F)F)n4)nc(O)c32)nc1 (stereo not drawn) [Example 130B, 4-hydroxy-5-methyl-5-(5-methylpyridin-2-yl)-2-(8-(3,3,4,4,4-pentafluorobutyl)-[1,2,4]triazolo[1,5-a]pyrazin-6-yl)-5H-pyrrolo[2,3-d]pyrimidin-6(7H)-one] | 109
CC1(c2ccc(C#N)cn2)C(=O)Nc2nc(-c3cn4ncnc4c(CCC(F)(F)C(F)(F)F)n3)nc(O)c21 (stereo not drawn) [Example 131A, 6-(4-hydroxy-5-methyl-6-oxo-2-(8-(3,3,4,4,4-pentafluorobutyl)-[1,2,4]triazolo[1,5-a]pyrazin-6-yl)-6,7-dihydro-5H-pyrrolo[2,3-d]pyrimidin-5-yl)nicotinonitrile] | 99
Cc1nc2c(CCC(F)(F)C(F)(F)F)nc(-c3nc(O)c4c(n3)NC(=O)[C@@]4(C)c3ccc(F)cc3)cn2n1 [Example 133B, (S)-5-(4-fluorophenyl)-4-hydroxy-5-methyl-2-(2-methyl-8-(3,3,4,4,4-pentafluorobutyl)-[1,2,4]triazolo[1,5-a]pyrazin-6-yl)-5H-pyrrolo[2,3-d]pyrimidin-6(7H)-one] | 87
COc1ccc(C2(C)C(=O)Nc3nc(-c4cn5ncnc5c(CCCC(F)(F)F)n4)nc(O)c32)nc1 (stereo not drawn) [Example 148A, 4-hydroxy-5-(5-methoxypyridin-2-yl)-5-methyl-2-(8-(4,4,4-trifluorobutyl)-[1,2,4]triazolo[1,5-a]pyrazin-6-yl)-5H-pyrrolo[2,3-d]pyrimidin-6(7H)-one] | 96
CC1(c2ccc(Cl)c(F)c2)C(=O)Nc2nc(-c3cn4ncnc4c(CCC(F)(F)F)n3)nc(O)c21 (stereo not drawn) [Example 153B, 5-(4-chloro-3-fluorophenyl)-4-hydroxy-5-methyl-2-(8-(3,3,3-trifluoropropyl)-[1,2,4]triazolo[1,5-a]pyrazin-6-yl)-5H-pyrrolo[2,3-d]pyrimidin-6(7H)-one] | 104
CCCCc1nc(-c2nc(O)c3c(n2)NC(=O)C3(C)c2ccc(Cl)cc2)cn2ncnc12 (stereo not drawn) [Example 157A, 2-(8-butyl-[1,2,4]triazolo[1,5-a]pyrazin-6-yl)-5-(4-chlorophenyl)-4-hydroxy-5-methyl-5H-pyrrolo[2,3-d]pyrimidin-6(7H)-one] | 161
CCCCc1nc(-c2nc(O)c3c(n2)NC(=O)C3(C)c2ccc(C(F)(F)F)cn2)cn2ncnc12 (stereo not drawn) [Example 159B, 2-(8-butyl-[1,2,4]triazolo[1,5-a]pyrazin-6-yl)-4-hydroxy-5-methyl-5-(5-(trifluoromethyl)pyridin-2-yl)-5H-pyrrolo[2,3-d]pyrimidin-6(7H)-one] | 73
